For five compounds, inhibition results are on record in patent publication EP0101234A1, “Therapeutic agent” (The Boots Company PLC, priority 1982, dated 1984).

Usually inhibition stands for the share of the control response that was lost under treatment.

The test system of the test is uptake systems for 5HT in the brain. The test is described as follows: in vivo inhibition of p-chloroamphetamine-induced depletion of brain 5HT. On the set-up: species or system Charles River CD rats. Conditions: Rattus norvegicus, read-out: percentage inhibition of depletion (Ib). The protocol: Once inside the neuron the depletor agent displaces the amine transmitter from its storage sites into the cytoplasm of the cell where it is metabolised by monoamine oxidase. […] The levels of the amine transmitter are preserved by pretreatment of the uptake sites with an uptake inhibitor. […] After 30 minutes a solution of p-chloroamphetamine in. distilled water was injected intraperitoneally at a dose of 5 mg/kg. After a further four hours the animals were sacrificed and the 5HT level in the brain determined fluorometrically.
The 5HT level in the brain was also determined in Control animals which received only vehicle solutions and for animals which received vehicle orally instead of the test compound followed by intraperitoneal injections of the depleting agent. These latter animals are referred to herein as depleted controls. The percentage inhibition. of depletion (Ib) was calculated using the formula

The mark [1] stands for this setting: rats, 30 mg/kg orally, p-chloroamphetamine 5 mg/kg i.p. after 30 minutes, brain 5HT level after a further four hours.

Counter-ions that a name gives are not always drawn. Like-named read-outs stand apart in the source and are kept apart here.

In the case of `CN(C)CCCN1c2ccccc2CCc2ccc(Cl)cc21` [Clomipramine], the inhibition at 30 mg/kg is 8%.
Consider `CN(C)CC/C=C1\c2ccccc2CSc2ccccc21` [Dothiepin], for which the inhibition at 30 mg/kg under setting [1] was 9%.
Take `CN(C)CCCN1c2ccccc2CCc2ccccc21` [Imipramine]: the inhibition at 30 mg/kg worked out at 18%.
For the compound `CN(C)CCC=C1c2ccccc2CSc2ccc(C#N)cc21` [Product of Example 1, 11-(3-dimethylaminopropylidene)-6,11-dihydrodibenzo(b,e)thiepin-2-carbonitrile hydrobromide], the inhibition at 30 mg/kg under setting [1] turned out to be 82%.
`CN(C)CCC=C1c2cc(C#N)ccc2CSc2ccccc21` [Product of Example A, 11-(3-Dimethyl-aminopropylidene)6,1i-dihydrodibenzo[b,e]thiepin-9-carbonitrile hydrobromide]: the inhibition at 30 mg/kg under setting [1] worked out at 0%.
